According to paper PMC9822396 (Molecules, 2022):
Values joined by “and” are separate entries in the source; they are usually repeats but may differ in a detail not shown here. Equal values may be shown once. “Also recorded” adds a separate entry of the source.

Experiments:
BACE1 = biological target: T1, BACE1 (Homo sapiens, UniProt P56817); experiment: BACE1 inhibition (fluorescent activity detection kit); assay type: biochemical; conditions: read-out: Residual Activity at 10 µM (%) BACE1
T1 construct: purchased Sigma-Aldrich

MDCK cells = experiment: Cytotoxicity, CCK-8 cell viability, MDCK; assay type: cell-based, canine; conditions: normal cell line, up to 50 µM, 24 h
Description: (§1) Dimethyl sulfoxide (DMSO) and 2-mercaptoethanol (2-ME) were obtained from Sigma Aldrich. Cell counting kit-8 (CCK-8) was obtained from Dojindo Laboratories (Kumamoto, Japan). Madin-Darby canine kidney (MDCK; KCLB 10034) cells, human acute promyelocytic leukemia (HL-60; KCLB 10240) cells, and human neuroblastoma cells (SH-SY5Y; KCLB 22266) were purchased from the Korean Cell Line Bank (KCLB, Seoul, Republic of Korea).
(§2) Passages were used between 10 and 30. Following trypsinization, MDCK (1 × 10^4), HL-60 (5 × 10^4), and SH-SY5Y (5 × 10^4) cells were seeded in 96-well plates and treated with 1, 3, 10, 30 and 50 µM of each inhibitor. The plates were then incubated for 24 h at 37 °C with 5% CO2, and cell viability was determined by the CCK-8 and by measuring the optical density at 450 nm using a microplate reader (Versa Max, Molecular Devices, Sunnyvale, CA, USA). The cell viability was expressed as % by comparing the absorbance of the sample to that of the control. Statistical differences between groups were analyzed by ANOVA using IBM SPSS statistics 27 and probability values (p-values) less than 0.05 were marked as significant values.

hMAO-B [1] = biological target: T2, hMAO-B (Homo sapiens, UniProt P27338); experiment: Kinetics of hMAO-B inhibition (Lineweaver-Burk and secondary plots); assay type: biochemical; conditions: for Inhibition type hMAO-B: Lineweaver-Burk plots; for Ki: secondary plots of Lineweaver-Burk slopes
T2 construct: purchased Sigma-Aldrich
T2 sequence (P27338 1-520): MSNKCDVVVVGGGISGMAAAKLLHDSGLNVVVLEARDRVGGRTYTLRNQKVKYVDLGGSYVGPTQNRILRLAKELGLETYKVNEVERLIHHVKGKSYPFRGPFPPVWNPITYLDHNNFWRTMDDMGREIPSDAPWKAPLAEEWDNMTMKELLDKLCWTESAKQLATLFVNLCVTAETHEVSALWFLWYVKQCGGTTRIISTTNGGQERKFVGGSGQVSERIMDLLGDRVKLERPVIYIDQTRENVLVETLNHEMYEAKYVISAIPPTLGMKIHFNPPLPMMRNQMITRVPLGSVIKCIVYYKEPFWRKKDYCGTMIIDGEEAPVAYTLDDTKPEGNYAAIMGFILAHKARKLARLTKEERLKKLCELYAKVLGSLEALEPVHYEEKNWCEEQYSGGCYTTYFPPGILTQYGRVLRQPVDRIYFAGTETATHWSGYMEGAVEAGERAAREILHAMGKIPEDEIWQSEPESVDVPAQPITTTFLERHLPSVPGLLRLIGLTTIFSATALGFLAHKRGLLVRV

hMAO-A [2] = biological target: T3, hMAO-A (Homo sapiens, UniProt P21397); experiment: Kinetics of hMAO-A inhibition (Lineweaver-Burk and secondary plots); assay type: biochemical
T3 construct: purchased Sigma-Aldrich
T3 sequence (P21397 1-527): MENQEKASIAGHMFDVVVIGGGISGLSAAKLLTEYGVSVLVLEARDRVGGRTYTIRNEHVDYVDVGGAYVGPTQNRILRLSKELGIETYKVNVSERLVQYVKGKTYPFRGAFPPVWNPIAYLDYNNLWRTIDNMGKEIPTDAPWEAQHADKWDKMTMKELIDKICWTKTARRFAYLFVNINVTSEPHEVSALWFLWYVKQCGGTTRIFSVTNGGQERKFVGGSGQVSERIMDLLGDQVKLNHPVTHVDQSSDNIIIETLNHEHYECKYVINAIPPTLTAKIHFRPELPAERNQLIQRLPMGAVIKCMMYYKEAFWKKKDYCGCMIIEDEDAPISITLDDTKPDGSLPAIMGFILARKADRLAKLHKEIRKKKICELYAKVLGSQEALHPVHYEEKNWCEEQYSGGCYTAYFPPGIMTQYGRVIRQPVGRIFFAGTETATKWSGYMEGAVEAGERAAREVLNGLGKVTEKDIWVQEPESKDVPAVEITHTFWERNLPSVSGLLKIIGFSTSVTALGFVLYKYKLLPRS
Method: The kinetics of MAO-A inhibition by 13 was also investigated as above, except at 0.0075–0.12 mM of substrate concentrations. Inhibitory types and Ki values were determined using Lineweaver-Burk plots and secondary plots of their slopes, respectively.

AChE = biological target: T4, AChE (Electrophorus electricus, UniProt O42275); experiment: AChE inhibition (Ellman method); assay type: biochemical; conditions: read-out: Residual Activity at 10 µM (%) AChE
T4 construct: purchased Sigma-Aldrich
Method: (§3) All other chemicals were of reagent grade.
(§4) hMAO-A and -B activities were determined using a continuous spectrophotometric method, as described previously. […] AChE and BChE activities were assayed as described by Ellman et al., with slight modification. Reactions were performed using AChE and BChE in the 0.5 mL reaction mixtures including 0.5 mM substrate (ATCI and BTCI, respectively) and color reagent (DTNB). […] Reaction rates are expressed as changes in absorbance per min.. Inhibitory activities of AChE and BChE were measured after preincubating enzyme with inhibitors for 15 min before adding DTNB and each substrate. […]

SH-SY5Y cells = experiment: Cytotoxicity, CCK-8 cell viability, SH-SY5Y; assay type: cell-based, human; conditions: neuroblastoma, 24 h
Description: as §1, §2

[3] = Cytotoxicity, CCK-8 cell viability, SH-SY5Y; assay type: cell-based, human; conditions: human, 30 µM
Description: as §1, §2

hMAO-A [4] = biological target: T3, hMAO-A; experiment: biochemical; conditions: for remaining activity at 10 µM: read-out: Residual Activity at 10 µM (%) hMAO-A
Method: as §3
hMAO-A and -B activities were determined using a continuous spectrophotometric method, as described previously. […] AChE and BChE activities were assayed as described by Ellman et al., with slight modification. Reactions were performed using AChE and BChE in the 0.5 mL reaction mixtures including 0.5 mM substrate (ATCI and BTCI, respectively) and color reagent (DTNB). […] Reaction rates are expressed as changes in absorbance per min.. Inhibitory activities of AChE and BChE were measured after preincubating enzyme with inhibitors for 15 min before adding DTNB and each substrate.
Inhibitory types and Ki values were determined using Lineweaver-Burk plots and secondary plots of their slopes, respectively.

hMAO-B [5] = biological target: T2, hMAO-B; experiment: biochemical; assay type: biochemical; conditions: for SI: hMAO-B selectivity: IC50 of hMAO-A divided by IC50 of hMAO-B; for remaining activity at 10 µM: read-out: Residual Activity at 10 µM (%) hMAO-B
Method: as §3, §4

BChE = biological target: T5, BChE (Equus caballus, UniProt P81908); experiment: BChE inhibition (Ellman method); assay type: biochemical, equine; conditions: read-out: Residual Activity at 10 µM (%) BChE
T5 construct: BChE from equine serum; purchased Sigma-Aldrich; host or cells: equine serum
Method: as §3, §4

hMAO-B [6] = biological target: T2, hMAO-B; experiment: Reversibility of hMAO-B inhibition by dialysis; assay type: biochemical; conditions: for Reversibility of hMAO-B inhibition: dialysis; for Relative activity dialyzed (AD), hMAO-B: inhibitor at ~2 times IC50, after dialysis; for Relative activity undialyzed (AU), hMAO-B: inhibitor at ~2 times IC50, before dialysis
Method: (§5) After preincubating compounds or reference inhibitors with hMAO-A and hMAO-B, residual activities for undialyzed and dialyzed samples were measured. Relative values for undialyzed (AU) and dialyzed (AD) activities were then calculated and compared with non-inhibitor treated controls. Reversibilities were determined by comparing the AU and AD values of inhibitors with those of references.

HL-60 cells = experiment: Cytotoxicity, CCK-8 cell viability, HL-60; assay type: cell-based, human; conditions: cancer cell line, up to 50 µM, 24 h
Description: as §1, §2

hMAO-A [7] = biological target: T3, hMAO-A; experiment: Reversibility of hMAO-A inhibition by dialysis; assay type: biochemical
Method: as §5

T5 sequence (P81908 whole entry): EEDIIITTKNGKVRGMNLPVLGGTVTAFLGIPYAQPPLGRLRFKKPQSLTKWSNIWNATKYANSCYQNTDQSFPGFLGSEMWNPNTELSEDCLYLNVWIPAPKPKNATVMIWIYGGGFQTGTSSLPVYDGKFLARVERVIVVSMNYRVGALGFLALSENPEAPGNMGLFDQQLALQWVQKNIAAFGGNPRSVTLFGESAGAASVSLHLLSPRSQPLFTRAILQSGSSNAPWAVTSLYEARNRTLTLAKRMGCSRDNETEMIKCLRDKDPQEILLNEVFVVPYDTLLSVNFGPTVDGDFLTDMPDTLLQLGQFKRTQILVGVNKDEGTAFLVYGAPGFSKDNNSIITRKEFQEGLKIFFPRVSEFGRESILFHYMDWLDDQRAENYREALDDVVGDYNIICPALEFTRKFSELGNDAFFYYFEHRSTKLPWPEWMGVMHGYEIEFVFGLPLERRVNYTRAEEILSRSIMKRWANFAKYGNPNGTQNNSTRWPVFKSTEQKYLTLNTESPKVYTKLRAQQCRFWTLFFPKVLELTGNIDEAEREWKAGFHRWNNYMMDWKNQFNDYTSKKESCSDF
T1 sequence (P56817 46-501): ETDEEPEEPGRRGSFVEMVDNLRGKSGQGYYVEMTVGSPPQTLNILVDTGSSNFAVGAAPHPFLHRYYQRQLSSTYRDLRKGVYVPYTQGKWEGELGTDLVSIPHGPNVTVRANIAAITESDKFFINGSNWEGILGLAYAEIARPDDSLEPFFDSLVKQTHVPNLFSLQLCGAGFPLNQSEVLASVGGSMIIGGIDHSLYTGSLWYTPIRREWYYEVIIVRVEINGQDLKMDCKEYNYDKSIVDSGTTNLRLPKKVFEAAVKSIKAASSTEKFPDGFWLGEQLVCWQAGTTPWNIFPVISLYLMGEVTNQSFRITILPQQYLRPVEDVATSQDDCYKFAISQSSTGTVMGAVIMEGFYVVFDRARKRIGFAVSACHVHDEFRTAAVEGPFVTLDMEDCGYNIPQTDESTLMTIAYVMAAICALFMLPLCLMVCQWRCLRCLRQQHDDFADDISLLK
T4 sequence (O42275 24-633): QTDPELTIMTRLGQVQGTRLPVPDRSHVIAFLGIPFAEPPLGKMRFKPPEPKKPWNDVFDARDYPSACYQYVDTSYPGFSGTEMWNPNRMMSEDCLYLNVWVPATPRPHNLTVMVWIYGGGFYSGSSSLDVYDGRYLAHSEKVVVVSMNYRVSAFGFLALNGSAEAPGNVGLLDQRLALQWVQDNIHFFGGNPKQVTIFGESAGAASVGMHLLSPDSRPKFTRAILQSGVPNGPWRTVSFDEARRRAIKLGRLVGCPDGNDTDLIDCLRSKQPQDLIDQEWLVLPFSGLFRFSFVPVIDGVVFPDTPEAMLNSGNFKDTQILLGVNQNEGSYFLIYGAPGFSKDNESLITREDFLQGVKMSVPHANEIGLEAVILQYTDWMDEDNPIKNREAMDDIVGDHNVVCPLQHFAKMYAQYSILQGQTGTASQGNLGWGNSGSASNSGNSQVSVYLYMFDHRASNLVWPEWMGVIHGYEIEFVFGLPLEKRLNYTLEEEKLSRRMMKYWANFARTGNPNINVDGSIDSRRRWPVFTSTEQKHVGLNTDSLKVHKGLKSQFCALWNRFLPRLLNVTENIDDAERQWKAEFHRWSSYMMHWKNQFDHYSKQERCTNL

Structure (SMILES) | remaining activity at 10 µM (BACE1) | Effect on viability of MDCK cells (MDCK cells) | Inhibition type hMAO-B (hMAO-B [1]) | Ki (hMAO-B [1]) | remaining activity at 10 µM (AChE) | Toxicity to SH-SY5Y cells (SH-SY5Y cells) | IC50 (hMAO-A [4]) | remaining activity at 10 µM (hMAO-A [4]) | IC50 (hMAO-B [5]) | SI (hMAO-B [5]) | remaining activity at 10 µM (hMAO-B [5]) | remaining activity at 10 µM (BChE) | Reversibility of hMAO-B inhibition (hMAO-B [6]) | Relative activity dialyzed (AD), hMAO-B (hMAO-B [6]) | Relative activity undialyzed (AU), hMAO-B (hMAO-B [6]) | Effect on viability of HL-60 cells (HL-60 cells) | other results
COc1ccc2c(c1)O[C@H]1c3ccc(OC)cc3OC[C@@H]21 [Compound 13, 3,9-dimethoxypterocarpan] | 101.48 ± 0.01% | non-toxicity; also recorded: no effects on the viabilities | competitive inhibitor | 210 nM and 212 nM | 81 ± 2.44% | moderate toxicity | 1490 ± 21 nM | 11.6 ± 2.6% | 720 ± 28 nM | 2.07 | 4.05 ± 1.91% | 88.5 ± 1.96% | reversible inhibitor | 73.5% | 32.0% | non-toxicity; also recorded: no effects on the viabilities | Inhibition type hMAO-A (hMAO-A [2]; Lineweaver-Burk plots): competitive inhibitor; Ki (hMAO-A [2]; secondary plots of Lineweaver-Burk slopes): 617 ± 23 nM; viability at 24 h, 30 µM ([3]; SH-SY5Y neuroblastoma cells): 71.1%; times higher hMAO-B inhibitory activity than 12 (hMAO-B [5]; 9-OCH3 of 13 versus 8,9-methylenedioxy of 12): 4.7 times; Reversibility of hMAO-A inhibition (hMAO-A [7]; dialysis): reversible inhibitor; Relative activity dialyzed (AD), hMAO-A (hMAO-A [7]; inhibitor at ~2 times IC50, after dialysis): 75.8%; Relative activity undialyzed (AU), hMAO-A (hMAO-A [7]; inhibitor at ~2 times IC50, before dialysis): 25.4%
COc1ccc2c(c1)OC1c3ccc(O)cc3OCC21 (stereo not drawn) [Compound 8, 3-hydroxy-9-methoxypterocarpan] | 111.4 ± 0.52% | non-toxicity; also recorded: no effects on the viabilities | competitive inhibitor | 197 ± 4 nM | 80.6 ± 2.62% | moderate toxicity | 19900 ± 850 nM | 64.18 ± 0.53% | 450 ± 32 nM | 44.2 | 4.17 ± 0.84% | 98.4 ± 1% | reversible inhibitor | 72.7% | 29.8% | non-toxicity; also recorded: no effects on the viabilities | viability at 24 h, 30 µM ([3]; SH-SY5Y cells): 74%; times higher hMAO-B inhibitory activity than 13 (hMAO-B [5]; 3-OH of 8 versus 3-OCH3 of 13): 1.6 times; times higher hMAO-B inhibition than maackiain (hMAO-B [5]; versus maackiain IC50 of ref 36): 1.5 times
